Data published in ChEMBL document CHEMBL1139615, “Structure-based design and synthesis of pyrazinones containing novel P1 'side pocket' moieties as inhibitors of TF/VIIa” (Bioorg Med Chem Lett, 2005).

Assays:
[1] = Inhibitory concentration against Factor IIa
Coagulation factor VII = target: T1, Coagulation factor VII (Homo sapiens, UniProt P08709); test: Inhibitory concentration against Coagulation factor VIIa
T1 sequence (P08709 whole entry): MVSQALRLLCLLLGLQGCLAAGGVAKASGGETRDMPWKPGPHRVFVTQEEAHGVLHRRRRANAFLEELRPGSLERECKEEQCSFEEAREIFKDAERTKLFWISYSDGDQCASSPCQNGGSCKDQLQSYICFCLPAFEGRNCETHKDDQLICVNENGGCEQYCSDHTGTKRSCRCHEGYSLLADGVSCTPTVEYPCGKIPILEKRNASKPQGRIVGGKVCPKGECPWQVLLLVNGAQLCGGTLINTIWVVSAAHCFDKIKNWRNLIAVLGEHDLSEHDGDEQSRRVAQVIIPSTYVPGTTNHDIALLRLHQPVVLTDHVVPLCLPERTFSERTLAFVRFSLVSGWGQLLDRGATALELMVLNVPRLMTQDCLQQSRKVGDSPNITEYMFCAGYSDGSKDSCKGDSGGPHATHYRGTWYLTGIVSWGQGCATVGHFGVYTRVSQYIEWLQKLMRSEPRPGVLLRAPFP

[2] = Inhibitory concentration against Trypsin
[3] = Inhibitory concentration against Coagulation factor Xa

| SMILES | IC50 [1] [nM] | IC50 (Coagulation factor VII) [nM] | IC50 [2] [nM] | IC50 [3] [nM] |
| --- | --- | --- | --- | --- |
| CC[C@@H](C)NC(=O)c1cc(N)cc(-c2cnc(NC(C)C)c(=O)n2CC(=O)NCc2ccc(C(=N)N)cc2C(=O)NCC(F)(F)F)c1 | 22600 | 12 | 15 | > 30000 |
| CC[C@@H](C)NC(=O)c1cc(N)cc(-c2cnc(NC(C)C)c(=O)n2CC(=O)NCc2ccc(C(=N)N)cc2C(=O)NCC(=O)OC)c1 | 26700 | 23 | 31 | > 30000 |
| CC[C@@H](C)NC(=O)c1cc(N)cc(-c2cnc(NC(C)C)c(=O)n2CC(=O)NCc2ccc(C(=N)N)cc2C(=O)Nc2ccncc2)c1 | > 30000 |  | 28 | > 30000 |
| CC[C@@H](C)NC(=O)c1cc(N)cc(-c2cnc(NC(C)C)c(=O)n2CC(=O)NCc2ccc(C(=N)N)cc2C(=O)NCCN2CCOCC2)c1 | 16700 | 20 | 21 | > 30000 |

Now from value to molecule:

| IC50 [1] [nM] | IC50 (Coagulation factor VII) [nM] | IC50 [2] [nM] | IC50 [3] [nM] | SMILES |
| --- | --- | --- | --- | --- |
| 6100 | 1.7 | 15 | > 30000 | CC[C@@H](C)NC(=O)c1cc(N)cc(-c2cnc(NC(C)C)c(=O)n2CC(=O)NCc2ccc(C(=N)N)cc2)c1 |
| > 30000 | 21 | 16 | > 30000 | CC[C@@H](C)NC(=O)c1cc(N)cc(-c2cnc(NC(C)C)c(=O)n2CC(=O)NCc2ccc(C(=N)N)cc2C(=O)NCC(=O)O)c1 |
| 13700 | 6.2 | 20 | > 30000 | CC[C@@H](C)NC(=O)c1cc(N)cc(-c2cnc(NC(C)C)c(=O)n2CC(=O)NCc2ccc(C(=N)N)cc2C(N)=O)c1 |
| > 30000 | 152 | 50 | > 30000 | CC[C@@H](C)NC(=O)c1cc(N)cc(-c2cnc(NC(C)C)c(=O)n2CC(=O)NCc2ccc(C(=N)N)cc2C(=O)O)c1 |
